This passage reports EC50 results from patent US11066414B2, “Cot modulators and methods of use thereof” (Gilead Sciences, Inc., priority 2015, dated 2021).

The subject of one experiment is TNFα. As to the kind of experiment: Cot Monocyte TNFα Cell Based Assay. As to conditions: Homo sapiens, Monocyte, read-out: EC50 TNF, LPS-stimulated human monocytes, TNFα.
In general, EC50 refers to the concentration that produces a half-maximal response. Turning to `[2H]C([2H])(Nc1c(C#N)cnc2c(Cl)cc(N[C@@]([2H])(c3ccc(N(C)C)nc3)c3cn(C4CC4)nn3)cc12)C(C)(C)C` [Example 679, (S)-8-chloro-6-(((1-cyclopropyl-1H-1,2,3-triazol-4-yl)(6-(dimethylamino)pyridin-3-yl)methyl-d)amino)-4-((2,2-dimethylpropyl-1,1-d2)amino)quinoline-3-carbonitrile], the EC50 was 710 nM.

For `Cc1ccc([C@H](Nc2cc(Cl)c3ncc(C#N)c(NCC(C)(C)C)c3c2)c2cn(C3(C(F)(F)F)CC3)nn2)c(C)n1` [Example 687, (S)-8-chloro-6-(((2,6-dimethylpyridin-3-yl)(1-(1-(trifluoromethyl)cyclopropyl)-1H-1,2,3-triazol-4-yl)methyl)amino)-4-(neopentylamino)quinoline-3-carbonitrile], the EC50 was 178 nM.

On to `CC(C)(C)CNc1c(C#N)cnc2c(Cl)cc(N[C@H](c3cn(C(C)(C)C(F)F)nn3)c3cccc4ncccc34)cc12` [Example 693, (S)-8-chloro-6-(((1-(1,1-difluoro-2-methylpropan-2-yl)-1H-1,2,3-triazol-4-yl)(quinolin-5-yl)methyl)amino)-4-(neopentylamino)quinoline-3-carbonitrile], for which the EC50 amounted to 141 nM.

Regarding `CC(C)(C)CNc1c(C#N)cnc2c(Cl)cc(N[C@@H](c3ccc4cccnc4c3)c3cn(C4(C(F)F)CC4)nn3)cc12` [Example 699, (S)-8-chloro-6-(((1-(1-(difluoromethyl)cyclopropyl)-1H-1,2,3-triazol-4-yl)(quinolin-7-yl)methyl)amino)-4-(neopentylamino)quinoline-3-carbonitrile], the EC50 amounted to 386 nM.

Consider `Cc1nc(F)ccc1[C@H](Nc1cc(Cl)c2ncc(C#N)c(NCC(C)(C)CO)c2c1)c1cn(C2(C(F)F)CC2)nn1` [Example 746, (S)-8-chloro-6-(((1-(1-(difluoromethyl)cyclopropyl)-1H-1,2,3-triazol-4-yl)(6-fluoro-2-methylpyridin-3-yl)methyl)amino)-4-((3-hydroxy-2,2-dimethylpropyl)amino)quinoline-3-carbonitrile], for which the EC50 stood at 178 nM.

Take `Cc1nc(F)ccc1[C@H](Nc1cc(Cl)c2ncc(C#N)c(NCC(C)(C)C)c2c1)c1cn(CC(C)(F)F)nn1` [Example 749, (S)-8-chloro-6-(((1-(2,2-difluoropropyl)-1H-1,2,3-triazol-4-yl)(6-fluoro-2-methylpyridin-3-yl)methyl)amino)-4-(neopentylamino)quinoline-3-carbonitrile]: the EC50 came to 66 nM.

Take `Cc1nc(F)ccc1[C@H](Nc1cc(Cl)c2ncc(C#N)c(NCC(C)(C)C)c2c1)c1cn(CC2(C(F)(F)F)CC2)nn1` [Example 751, (S)-8-chloro-6-(((6-fluoro-2-methylpyridin-3-yl)(1-((1-(trifluoromethyl)-cyclopropyl)methyl)-1H-1,2,3-triazol-4-yl)methyl)amino)-4-(neopentylamino)quinoline-3-carbonitrile]: the EC50 worked out at 230 nM.

Regarding `Cc1nc(F)ccc1[C@H](Nc1cc(Cl)c2ncc(C#N)c(NCC(C)(C)C)c2c1)c1cn(C2(CC(F)(F)F)CC2)nn1` [Example 753, (S)-8-chloro-6-(((6-fluoro-2-methylpyridin-3-yl)(1-(1-(2,2,2-trifluoroethyl)-cyclopropyl)-1H-1,2,3-triazol-4-yl)methyl)amino)-4-(neopentylamino)quinoline-3-carbonitrile], the EC50 was determined as 59 nM.

With `Cc1nc(F)ccc1[C@H](Nc1cc(Cl)c2ncc(C#N)c(NCC(C)(C)C)c2c1)c1cn(C2(C(C)(C)C)CC2)nn1` [Example 761, (S)-6-(((1-(1-(tert-butyl)cyclopropyl)-1H-1,2,3-triazol-4-yl)(6-fluoro-2-methylpyridin-3-yl)methyl)amino)-8-chloro-4-(neopentylamino)quinoline-3-carbonitrile], the EC50 was determined as 69 nM.

Take `CC(C)n1ccc2c([C@H](Nc3cc(Cl)c4ncc(C#N)c(NCC(C)(C)C)c4c3)c3cn(C4(C)CC4)nn3)cccc2c1=O` [Example 774, (S)-8-chloro-6-(((2-isopropyl-1-oxo-1,2-dihydroisoquinolin-5-yl)(1-(1-methylcyclopropyl)-1H-1,2,3-triazol-4-yl)methyl)amino)-4-(neopentyl-amino)quinoline-3-carbonitrile]: the EC50 amounted to 40 nM.

Consider `Cn1ccc2c([C@H](Nc3cc(Cl)c4ncc(C#N)c(NCC(C)(C)C)c4c3)c3cn(C(CF)CF)nn3)cccc2c1=O` [Example 777, (S)-8-chloro-6-(((1-(1,3-difluoropropan-2-yl)-1H-1,2,3-triazol-4-yl)(2-methyl-1-oxo-1,2-dihydroisoquinolin-5-yl)methyl)amino)-4-(neopentylamino)quinoline-3-carbonitrile], for which the EC50 came out at 46 nM.

In the case of `COc1ncccc1[C@H](Nc1cc(Cl)c2ncc(C#N)c(NCC(C)(C)C)c2c1)c1cn(C2(C(F)(F)F)CC2)nn1` [Example 782, (S)-8-chloro-6-(((2-methoxypyridin-3-yl)(1-(1-(trifluoromethyl)cyclopropyl)-1H-1,2,3-triazol-4-yl)methyl)amino)-4-(neopentylamino)quinoline-3-carbonitrile], the EC50 was 177 nM.

With `CC(C)(C)CNc1c(C#N)cnc2c(Cl)cc(N[C@H](c3cn(C4(C(F)(F)F)CC4)nn3)c3cccc4c(=O)n(C(F)F)ccc34)cc12` [Example 788, (S)-8-chloro-6-(((2-(difluoromethyl)-1-oxo-1,2-dihydroisoquinolin-5-yl)(1-(1-(trifluoromethyl)cyclopropyl)-1H-1,2,3-triazol-4-yl)methyl)amino)-4-(neopentylamino)quinoline-3-carbonitrile], the EC50 is 208 nM.

Regarding `Cn1c(=O)ccc2c([C@H](Nc3cc(Cl)c4ncc(C#N)c(NCC(C)(C)C)c4c3)c3cn(C4(C(F)(F)F)CC4)nn3)cccc21` [Example 789, (S)-8-chloro-6-(((1-methyl-2-oxo-1,2-dihydroquinolin-5-yl)(1-(1-(trifluoromethyl)cyclopropyl)-1H-1,2,3-triazol-4-yl)methyl)amino)-4-(neopentylamino)quinoline-3-carbonitrile], the EC50 was determined as 156 nM.

Consider `CC(C)(C)CNc1c(C#N)cnc2c(Cl)cc(N[C@@H](c3ccc(Cl)nc3)c3cn(C4(C(F)(F)F)CC4)nn3)cc12` [Example 793, (S)-8-chloro-6-(((6-chloropyridin-3-yl)(1-(1-(trifluoromethyl)cyclopropyl)-1H-1,2,3-triazol-4-yl)methyl)amino)-4-(neopentylamino)quinoline-3-carbonitrile], for which the EC50 was determined as 782 nM.

Turning to `Cc1nc(Cl)ccc1[C@H](Nc1cc(Cl)c2ncc(C#N)c(NCC(C)(C)C)c2c1)c1cn(C2(C(F)(F)F)CC2)nn1` [Example 794, (S)-8-chloro-6-(((6-chloro-2-methylpyridin-3-yl)(1-(1-(trifluoromethyl)-cyclopropyl)-1H-1,2,3-triazol-4-yl)methyl)amino)-4-(neopentylamino)quinoline-3-carbonitrile], the EC50 was found to be 130 nM.

`Cc1ccc([C@H](Nc2cc(Cl)c3ncc(C#N)c(NCC(C)(C)C)c3c2)c2cn(C3(C(F)(F)F)CC3)nn2)cn1` [Example 795, (S)-8-chloro-6-(((6-methylpyridin-3-yl)(1-(1-(trifluoromethyl)cyclopropyl)-1H-1,2,3-triazol-4-yl)methyl)amino)-4-(neopentylamino)quinoline-3-carbonitrile]: the EC50 was 530 nM.

Still in this experiment, the particulars now being: Homo sapiens, Monocyte, read-out: EC50 TNF, LPS-stimulated human monocytes, TNFα TR-FRET.
In the case of `CC(C)(C)CNc1c(C#N)cnc2c(C#N)cc(N[C@H](c3cn(C4(C(F)(F)F)CC4)nn3)c3cccc4c(C#N)nccc34)cc12` [Example 817, (S)-6-(((1-cyanoisoquinolin-5-yl)(1-(1-(trifluoromethyl)cyclopropyl)-1H-1,2,3-triazol-4-yl)methyl)amino)-4-(neopentylamino)quinoline-3,8-dicarbonitrile], the EC50 is 116 nM.

Take `Cn1cccc([C@H](Nc2cc(C#N)c3ncc(C#N)c(NCC(C)(C)C)c3c2)c2cn(C3(C(F)(F)F)CC3)nn2)c1=O` [Example 844, (S)-6-(((1-methyl-2-oxo-1,2-dihydropyridin-3-yl)(1-(1-(trifluoromethyl)cyclopropyl)-1H-1,2,3-triazol-4-yl)methyl)amino)-4-(neopentylamino)quinoline-3,8-dicarbonitrile]: the EC50 came out at 417 nM.

Take `Cc1nc(F)ccc1[C@H](Nc1cc(C#N)c2ncc(C#N)c(NCC(C)(C)C(F)(F)F)c2c1)c1nnn(C2(C3CC3)CC2)c1F` [Example 862, (S)-6-(((1-([1,1′-bi(cyclopropan)]-1-yl)-5-fluoro-1H-1,2,3-triazol-4-yl)(6-fluoro-2-methylpyridin-3-yl)methyl)amino)-4-((3,3,3-trifluoro-2,2-dimethylpropyl)amino)quinoline-3,8-dicarbonitrile]: the EC50 is 49 nM.

Regarding `CC1(n2cc([C@@H](Nc3cc(C#N)c4ncc(C#N)c(NCC(C)(C)C(F)(F)F)c4c3)c3cccc4ncccc34)nn2)CC1` [Example 895, (S)-6-(((1-(1-methylcyclopropyl)-1H-1,2,3-triazol-4-yl)(quinolin-5-yl)methyl)amino)-4-((3,3,3-trifluoro-2,2-dimethylpropyl)amino)quinoline-3,8-dicarbonitrile], the EC50 was determined as 41 nM.

As to `Cc1ncsc1[C@H](Nc1cc(C#N)c2ncc(C#N)c(NCC(C)(C)C)c2c1)c1cn(C2(C3CC3)CC2)nn1` [Example 903, (R)-6-(((1-([1,1′-bi(cyclopropan)]-1-yl)-1H-1,2,3-triazol-4-yl)(4-methylthiazol-5-yl)methyl)amino)-4-(neopentylamino)quinoline-3,8-dicarbonitrile], the EC50 was determined as 36 nM.

As for `COc1ccc([C@H](Nc2cc(C#N)c3ncc(C#N)c(NCC(C)(C)C)c3c2)c2cn(C3(C(F)(F)F)CC3)nn2)cn1` [Example 905, (S)-6-(((6-methoxypyridin-3-yl)(1-(1-(trifluoromethyl)cyclopropyl)-1H-1,2,3-triazol-4-yl)methyl)amino)-4-(neopentylamino)quinoline-3,8-dicarbonitrile], the EC50 is 212 nM.

The experiment is the same for the next values; noted with them: read-out: EC50 TNF; LPS-stimulated human monocytes, TNFα.
For `Cc1nc(F)ccc1[C@H](Nc1cc(Cl)c2ncc(C#N)c(NCC(C)(C)C)c2c1)c1cn(CC(C)(C)C(F)(F)F)nn1` [Example 755], the EC50 was determined as 365 nM.
